Test results as given in patent publication US5625044A, “Methods for the preparation of pure homologous series of mono to tetra fatty acyl esters of sugars and pharmaceutical formulations useful in the treatment of cancer” (Goudreau Gage Dubec & Martineau, priority 1994, dated 1997).
“Also recorded” adds a separate entry of the source.

Key:
[1] = Tolerance and immunosuppression of angiostatic steroids
Description: The doses were: 150 mg/kg of body weight/day for the first two days, 125 mg/kg of body weight/day for the next two days, 100 mg/kg of body weight/day for the next two days, and then a maintenance dose of 75 mg/kg of body weight/day was used for the remaining duration of the treatment, for a total of 20-25 days. […] Therefore, the dosage rate of steroids might also be adjusted, according to the patients' response, which is left to the clinician;

[2] = in vivo; cited from earlier work
[3] = system: cultured endothelial cells; assay type: in vitro ADME
[4] = system: Naik As cells; assay: In vitro growth inhibition of angiosarcoma cell line Naik-AS; assay type: cell-based
From the text: The in vitro growth of an angiosarcoma cell line (Naik-AS) developed by us was studied in the presence and absence of maltose tri- and tetrapalmitates.

[5] = system: C3HBA; assay: Antitumor activity of maltose palmitates against C3HBA fragment implanted s.c. in C3H/HeN females; assay type: in vivo, C3H/HeN mice; conditions: ip. 3 times weekly, 10 μg (individual palmitates)
From the text: The scientific and patent literature on tri-fatty acyl disaccharides is non existent. This compound has not been obtained as a single entity. The compound forms complexes and rarely appeared as a pure band in our investigations. However, when the mixture is subjected to HPLC as described in I, we obtain sufficient quantities of di, tri and tetra palmitates. This allowed us to test each of these components individually and in combinations. Briefly, the following results were obtained using C3HBA fragment implanted s.c. in C3H/HeN females.

[6] = Degradation of labelled maltose palmitates in tissues (14C/3H ratio of ethanolic extract); design: species or system mice; conditions: mouse, in vivo
Description: The ^3 H-palmitoyl chloride and the ^14 C-maltose (as prepared earlier) were mixed in a total volume of 500 μl of dimethyl formamide (DMF). To the mixture was added 100 μl pyridine and the contents were heated for 14 h at 60° C. in a nitrogen atmosphere. The product was then evaporated under reduced pressure at 60° C. to remove the solvents. It was dissolved in 400 μl of absolute ethanol. Pyridine hydrochloride was removed by adding the dissolved crude reaction product to 1 ml ice cold water in an Eppendorf tube. The resulting suspension was centrifuged at 4° C. for 10 min and the supernatant was discarded. The product was dried for 48 hours in a vacuum desiccator and then was extracted with three 10 μl portions of methanol at room temperature. The methanol extract was subjected to reverse phase HPLC using a methanol eluent and detection at 214 nm at a flow rate of 0.5 ml/min and a 3.9 mn×15 cm Waters Resolve C18 5μ column. Two components eluting at 19.1 and 24.1 min which corresponded to the two isomers of maltose tetrapalmitate were collected. […] The tissue extracts were analyzed for ^3 H and ^14 C for non metabolized MTP and its degradation products by scintillation counting. […]
The ratio of degradation calculated on the basis of slope of ^14 C/^3 H ratio between 24 h and 48 h, in ethanolic extract indicated the following order of degradation, with liver taken as 100: […]

[7] = system: tumor cells; assay: Antitumor activity of individual maltose palmitates (summary statements); assay type: in vivo; conditions: comparison of maltose palmitates
[8] = rodents, 150 down to 75 mg/kg of body weight/day, 20-25 days

Compound: CC(=O)[C@@]1(O)CC[C@H]2[C@@H]3CCC4=CC(=O)CC[C@]4(C)[C@H]3CC[C@@]21C [17-β-OH progesterone]
- tolerance at high doses [1, 8]: rodents tolerate them

Compound: C[C@]12CCC(=O)C=C1CC[C@@H]1[C@@H]2CC[C@@]2(C)[C@H]1CC[C@]2(O)C(=O)CO [cortexolone]
- tolerance at high doses ([1]; in vivo): rodents tolerate them

Compound: C[C@]12CCC(=O)C=C1CC[C@@H]1[C@@H]2[C@@H](O)C[C@@]2(C)[C@H]1CC[C@]2(O)C(=O)CO [hydrocortisone]
- tolerance at high doses [1, 8]: rodents tolerate them
- immunosuppression [2]: at high doses, it is immunosuppressive; also recorded: highly immunosuppressive

Compound: CCCCCCCCCCCCCCCC(=O)OC[C@H]1O[C@H](O[C@H]2[C@H](O)[C@@H](O)C(OC(=O)CCCCCCCCCCCCCCC)O[C@@H]2COC(=O)CCCCCCCCCCCCCCC)[C@H](O)[C@@H](O)[C@@H]1O (stereo partly shown) [maltose tripalmitate, maltose 1, 6, 6' tri palmitate]
- degradation by cultured endothelial cells [3]: Degradation also occurred
- % Inhibition of growth of Naik As cells in culture ([4]; 5 μg/ml, 30 hours): 30%
- % Inhibition of growth of Naik As cells in culture ([4]; 5 μg/ml, 60 hours): 17%
- % Inhibition of growth of Naik As cells in culture ([4]; 5 μg/ml, 105 hours): 10%
- % Inhibition of growth of Naik As cells in culture ([4]; .625 μg/ml, 30 hours): 25%
- % Inhibition of growth of Naik As cells in culture ([4]; .625 μg/ml, 60 hours): 11%
- % Inhibition of growth of Naik As cells in culture ([4]; .625 μg/ml, 105 hours): 4%
- in vitro growth of angiosarcoma cell line (Naik-AS), in words ([4]; time course in words): inhibited growth on the first 30 hours which response declined as it got degraded
- Day of tumor appearance after implantation [5]: 14 to 16 days
- retention time in tissues / degradation, in words [6]: followed by maltose tripalmitate
- antitumor activity, in words [7]: most active component

Compound: C[C@]12CC[C@@H](O)C[C@H]1CC[C@@H]1[C@@H]2CC[C@@]2(C)[C@H]1CC[C@]2(O)C(=O)CO [tetra hydro S]
- tolerance at high doses [1, 8]: rodents tolerate them
